Experimental data as given in article PMC9728307 (Journal of Microbiology and Biotechnology, 2020).
Structures can show the parent of a compound that is named as a salt. Where two headings read alike, the source gives them in different places. *1 amine or outer side, *2 acyl side, *3 side chain or, on linkers, in order; H or OH if unused. Where a SMILES comes first, the peptide text is derived from it. Bridges are numbered along the chain shown (N, C = ends). [ ]: non-standard residue; d: D form. The star is where a group is joined. hTyr(3S-OH,4S-OH,3'-OSO3H) = N[C@H](C(=O)O)[C@H](O)[C@@H](O)c1ccc(O)c(OS(=O)(=O)O)c1; Orn(4R-OH,5R-OH) = O=C([C@H](C[C@@H](O)[C@@H](O)N[*:3])N[*:1])[*:2]; Pro(3S-OH,4S-Me) = C[C@H]1CN[C@H](C(=O)O)[C@H]1O; X1 = CCCCCOc1ccc(-c2cc(-c3ccc(C(=O)*)cc3)no2)cc1; Gln(3R-OH) = NC(=O)C[C@@H](O)[C@H](N)C(=O)O; Hyp = O=C(O)[C@@H]1C[C@@H](O)CN1

Key:
in vitro = details: African green monkey, CC50 cell toxicity
SARS-CoV-2 [1] = test: microbe, parasite or virus in culture; format: cell-based; details: for Selectivity Index (SI): CC50/IC50
SARS-CoV-2 [2] = test: Viral RNA by real-time RT-PCR with primer sets specific to N gene; format: cell-based; details: virus-infected cells treated with drug
Protocol: Bromhexine hydrochloride is an inhibitor of TMPRSS2, a cofactor of SARS-CoV-2 entry, and one group reported that the drug was effective on COVID-19 patients in a clinical trial. To further investigate whether bromhexine hydrochloride could inhibit SARS-CoV-2 replication, viral RNA was measured by real-time RT-PCR using primer sets specific to N gene of SARS-CoV-2.
Fig. 4 Suppression of SARS-CoV-2 replication by bromhexine hydrochloride. Cellular RNAs were isolated from cells infected by SARS-COV-2 and treated with bromhexine hydrochloride. The level of viral RNA was measured by real-time RT-PCR using primer sets specific to N gene of SARS-CoV-2.

Vero cells = details: read-out: CC50 cell toxicity, MTS, no virus, compounds from secondary screening
SARS-CoV-2 [3] = format: cell-based; details: Vero cells, 20 μM, MOI 0.5, three days after infection, microscopic observation
[4] = Vero cells, MTS, no virus, compounds from primary screening
[5] = Vero cells, MTS, no virus, compounds from secondary screening
[6] = compounds from primary screening
[7] = compounds from secondary screening
[8] = Severe acute respiratory syndrome coronavirus 2, Vero, 24 h, Vero cells, MOI 2, 24 h post-infection, compounds from primary screening, 100 μM to 0.16 μM, read-out: IC50 antiviral activity
[9] = Severe acute respiratory syndrome coronavirus 2, Vero, 24 h, Vero cells, MOI 2, 24 h post-infection, compounds from secondary screening, 0.08–50 μM, read-out: IC50 antiviral activity
[10] = Severe acute respiratory syndrome coronavirus 2, Vero, 24 h, read-out: IC50 antiviral activity
[11] = Vero cells, MOI 2, 24 h post-infection, compounds from secondary screening, 0.08–50 μM, read-out: IC50 antiviral activity

Row | Compound | CC50 at 24 h (in vitro; [4]) | CC50 at 24 h (in vitro; [5]) | Selectivity Index (SI) (SARS-CoV-2 [1]; [6]) | Selectivity Index (SI) (SARS-CoV-2 [1]; [7]) | IC50 (SARS-CoV-2 [1]; [9]) | further results
1 | CCN(CC)Cc1cc(Nc2ccnc3cc(Cl)ccc23)ccc1O [Amodiaquine] | > 100 µM | > 50 µM | >17.2 | >10.9 | 4.6 µM | IC50 (SARS-CoV-2 [1]; [8]): 5.8 µM
2 | CN1CC2c3ccccc3Oc3ccc(Cl)cc3C2C1 (centres unmarked) [Asenapine] | – | > 50 µM | – | – | – | –
3 | O=C(CCCl)NCc1ccccc1 [Beclamide] | > 100 µM | – | >1.4 | – | – | IC50 (SARS-CoV-2 [1]; [10]): 72 µM
4 | CN(Cc1cc(Br)cc(Br)c1N)C1CCCCC1 [Bromhexine hydrochloride] | – | > 50 µM | – | >3.5 | – | Level of intracellular viral RNA (SARS-CoV-2 [2]): effectively reduced the intracellular RNA; IC50 (SARS-CoV-2 [1]; [10]): 14.4 µM
5 | CC(C)(C)c1ccc(CN2CCN(C(c3ccccc3)c3ccc(Cl)cc3)CC2)cc1 (centres unmarked) [Buclizine] | > 100 µM | – | >5.1 | – | – | IC50 (SARS-CoV-2 [1]; [8]): 19.6 µM
6 | Cc1ccc(-c2cc(C(F)(F)F)nn2-c2ccc(S(N)(=O)=O)cc2)cc1 [Celecoxib] | 74.8 µM | – | 4.3 | – | – | IC50 (SARS-CoV-2 [1]; [8]): 17.5 µM
7 | CCCCOc1cc(C(=O)NCCN(CC)CC)c2ccccc2n1 [Dibucaine hydrochloride] | – | – | – | >2.3 | 21.6 µM | CC50 at 24 h (in vitro): > 50 µM
8 | CN1CCC(OC(c2ccccc2)c2ccccc2)CC1 [Diphenylpyraline hydrochloride] | – | > 50 µM | – | >1.2 | 42.4 µM | –
9 | CC1=NN(c2ccc(C)c(C)c2)C(=O)/C1=N\Nc1cccc(-c2cccc(C(=O)O)c2)c1O [Eltrombopag] | – | 43.8 µM | – | 21.9 | 2 µM | –
10 | CCN(CC)C(C)CN1c2ccccc2Sc2ccccc21 (centres unmarked) [Ethopropazine hydrochloride] | – | > 50 µM | – | >2.5 | 20.3 µM | –
11 | Fc1ccc(C(c2ccc(F)cc2)N2CCN(C/C=C/c3ccccc3)CC2)cc1 [Flunarizine] | > 100 µM | – | – | – | – | –
12 | Cc1ccc(NC(=O)c2ccc(CN3CCN(C)CC3)cc2)cc1Nc1nccc(-c2cccnc2)n1 [Imatinib] | – | > 50 µM | – | – | – | –
13 | COc1ccc(CN2CCN(C(c3ccc(F)cc3)c3ccc(F)cc3)CC2)c(OC)c1OC [Lomerizine] | – | – | >7.8 | – | – | CC50 at 24 h (in vitro): > 100 µM; IC50 (SARS-CoV-2 [1]; [8]): 12.8 µM
14 | CN(C)C(=O)C(CCN1CCC(O)(c2ccc(Cl)cc2)CC1)(c1ccccc1)c1ccccc1 [Loperamide hydrochloride] | – | > 50 µM | – | – | – | –
15 | CCCCc1nc(Cl)c(CO)n1Cc1ccc(-c2ccccc2-c2nn[nH]n2)cc1 [Losartan] | > 100 µM | – | >1.4 | – | – | IC50 (SARS-CoV-2 [1]; [8]): 72 µM
16 | Cc1ccc(NC(=O)c2ccc(CN3CCN(C)CC3)cc2)cc1Nc1nc(-c2cccnc2)cs1 [Masitinib] | – | 47.1 µM | – | 3.2 | – | IC50 (SARS-CoV-2 [1]; [10]): 14.9 µM
17 | Cc1cccc(CN2CCN(C(c3ccccc3)c3ccc(Cl)cc3)CC2)c1 (centres unmarked) [Meclizine] | > 100 µM | – | >17.9 | – | – | IC50 (SARS-CoV-2 [1]; [8]): 5.6 µM
18 | CCCCCOc1ccc(-c2cc(-c3ccc(C(=O)N[C@H]4C[C@@H](O)[C@@H](O)NC(=O)[C@@H]5[C@@H](O)[C@@H](C)CN5C(=O)[C@H]([C@H](O)CC(N)=O)NC(=O)[C@H]([C@H](O)[C@@H](O)c5ccc(O)c(OS(=O)(=O)O)c5)NC(=O)[C@@H]5C[C@@H](O)CN5C(=O)[C@H]([C@@H](C)O)NC4=O)cc3)no2)cc1 [Micafungin] (X1-[Orn(4R-OH,5R-OH)]T[Hyp][hTyr(3S-OH,4S-OH,3'-OSO3H)][Gln(3R-OH)][Pro(3S-OH,4S-Me)]; lactam 1-C) | > 100 µM | > 50 µM | >18.1 | >3.9 | – | IC50 (SARS-CoV-2 [1]; Severe acute respiratory syndrome coronavirus 2, Vero, 24 h, read-out: IC50 antiviral activity, Vero cells, MOI 2, 24 h post-infection, compounds from primary screening, 100 μM to 0.16 μM): 5.5 µM; IC50 (SARS-CoV-2 [1]; Severe acute respiratory syndrome coronavirus 2, Vero, 24 h, read-out: IC50 antiviral activity, Vero cells, MOI 2, 24 h post-infection, compounds from secondary screening, 0.08–50 μM): 12.9 µM
19 | C=C[C@@]1(C)CC(=O)[C@]2(O)[C@@]3(C)[C@@H](O)CCC(C)(C)[C@@H]3[C@H](OC(=O)CCN(C)C)[C@H](OC(C)=O)[C@@]2(C)O1 [NKH 477] | – | – | – | – | – | IC50 (SARS-CoV-2 [1]; [11]): 12.7 µM; CC50 (Vero cells): > 50 µM
20 | CC(CN1c2ccccc2Sc2ccccc21)N(C)C (centres unmarked) [Promethazine hydrochloride] | – | > 50 µM | – | >2.6 | 19.1 µM | –
21 | C=C[C@H]1C[N@@]2CC[C@H]1C[C@@H]2[C@@H](O)c1ccnc2ccc(OC)cc12 [Quinidine gluconate] | – | > 50 µM | – | >2.1 | 24.2 µM | –
22 | CCC(CC)COC(=O)[C@H](C)N[P@](=O)(OC[C@H]1O[C@@](C#N)(c2ccc3c(N)ncnn23)[C@H](O)[C@@H]1O)Oc1ccccc1 [Remdesivir] | > 100 µM | > 50 µM | >20 | >10 | 5 µM | Inhibition of viral CPE (SARS-CoV-2 [3]): complete absence of CPE; IC50 (SARS-CoV-2 [1]; Severe acute respiratory syndrome coronavirus 2, Vero, 24 h, Vero cells, 2 MOI, 24 h post-infection, calibration of the assay with reference compound (Fig. 1), read-out: IC50 antiviral activity): 6 µM; IC50 (SARS-CoV-2 [1]; [8]): 5 µM
23 | COC(=O)[C@H]1[C@H]2C[C@@H]3c4[nH]c5cc(OC)ccc5c4CCN3C[C@H]2C[C@@H](OC(=O)c2cc(OC)c(OC)c(OC)c2)[C@@H]1OC [Reserpine] | – | > 50 µM | – | >1.7 | 29.2 µM | –
24 | CC[C@@H](C(=O)[C@@H](C)[C@@H](O)[C@H](C)[C@@H]1O[C@@H]([C@@H](CC)C(=O)O)CC[C@@H]1C)[C@H]1O[C@]2(C=C[C@@H](O)[C@]3(CC[C@@](C)([C@H]4CC[C@](O)(CC)[C@H](C)O4)O3)O2)[C@H](C)C[C@@H]1C [Salinomycin] | 56.3 µM | – | 97.1 | – | – | IC50 (SARS-CoV-2 [1]; [10]): 0.58 µM
25 | CC(C)N(CCCCOCC(=O)NS(C)(=O)=O)c1cnc(-c2ccccc2)c(-c2ccccc2)n1 [Selexipag] | – | – | – | >5.9 | 8.5 µM | CC50 at 24 h (in vitro): > 50 µM
26 | CN1CCN(CCCN2c3ccccc3Sc3ccc(S(=O)(=O)N(C)C)cc32)CC1 [Thioproperazine dimesylate] | – | – | – | – | – | IC50 (SARS-CoV-2 [1]; [11]): 13.4 µM; CC50 (Vero cells): 41 µM
27 | O=C(O)Cc1cc(I)c(Oc2ccc(O)c(I)c2)c(I)c1 [Tiratricol] | – | > 50 µM | – | >10.9 | – | IC50 (SARS-CoV-2 [1]; [10]): 4.6 µM
28 | CCCS(=O)(=O)Nc1ccc(F)c(C(=O)c2c[nH]c3ncc(-c4ccc(Cl)cc4)cc23)c1F [Vemurafenib (PLX4032), Vemurafenib] | – | – | – | >7.1 | 7 µM | CC50 at 24 h (in vitro): > 50 µM
29 | CCOC(=O)C1=C[C@]2(CC)CCCN3CCc4c(n1c1ccccc41)[C@@H]32 [Vinpocetine] | – | > 50 µM | – | >5.8 | 8.6 µM | –
30 | CC[C@H]1CN2CC[C@H]1C[C@@H]2[C@@H](O)c1ccnc2ccc(OC)cc12 [hydroquinidine] | – | > 50 µM | – | >2.1 | 23.8 µM | –
